IC50 data for 14 compounds are collected here from patent US8063225B2, “Tricyclic compound derivatives useful in the treatment of neoplastic diseases, inflammatory disorders and immunomodulatory disorders” (Chembridge Corporation, priority 2006, dated 2011).

The target of one assay is T1, IGF1R tyrosine kinase (Homo sapiens, UniProt P08069).
T1 construct: 6×His- or GST-tagged kinase domain fragments of the corresponding RTKs expressed in baculovirus system; host or cells: baculovirus system
Briefly: IGF1R tyrosine kinase assay (Kinase-Glo ATP depletion or PT66/PT100 AlphaScreen). The note with it: biochemical tyrosine kinase assay. An outline of the steps: (§1)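 Inhibition measured on recombinant RTK kinase domains phosphorylating poly(Glu-Tyr) at 10 μM ATP, either by ATP depletion luminescence (37 °C, 60 min) or by PT66/PT100 AlphaScreen with biotinylated substrate (RT, 30 min plus 60 min bead step). For Alk, InsR and Jak2, enzyme titrated to ≤30% ATP consumption; IC50 from nonlinear regression.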
For orientation: Kinase-Glo measures the ATP left after a reaction by luminescence.

The target of another assay is T2, InsR (Homo sapiens, UniProt P06213).
T2 construct: 6×His- or GST-tagged kinase domain fragments of the corresponding RTKs expressed in baculovirus system; host or cells: baculovirus system
T2 sequence (P06213 1023-1298 limits assumed, species assumed): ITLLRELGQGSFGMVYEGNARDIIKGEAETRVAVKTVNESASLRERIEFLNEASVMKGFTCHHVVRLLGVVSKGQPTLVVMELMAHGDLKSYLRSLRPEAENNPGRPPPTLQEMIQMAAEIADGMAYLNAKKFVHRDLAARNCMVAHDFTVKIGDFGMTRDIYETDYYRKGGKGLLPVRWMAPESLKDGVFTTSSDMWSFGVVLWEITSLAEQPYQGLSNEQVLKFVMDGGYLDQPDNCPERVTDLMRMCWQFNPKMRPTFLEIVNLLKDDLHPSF
Briefly: Tyrosine kinase assay (Kinase-Glo or AlphaScreen), InsR. The note with it: biochemical tyrosine kinase assay. Summed up: as §1

The target in a further assay is T3, Alk (Homo sapiens, UniProt Q9UM73).
T3 construct: 6×His- or GST-tagged kinase domain fragments of the corresponding RTKs expressed in baculovirus system; host or cells: baculovirus system
T3 sequence (Q9UM73 1116-1392 limits assumed, species assumed): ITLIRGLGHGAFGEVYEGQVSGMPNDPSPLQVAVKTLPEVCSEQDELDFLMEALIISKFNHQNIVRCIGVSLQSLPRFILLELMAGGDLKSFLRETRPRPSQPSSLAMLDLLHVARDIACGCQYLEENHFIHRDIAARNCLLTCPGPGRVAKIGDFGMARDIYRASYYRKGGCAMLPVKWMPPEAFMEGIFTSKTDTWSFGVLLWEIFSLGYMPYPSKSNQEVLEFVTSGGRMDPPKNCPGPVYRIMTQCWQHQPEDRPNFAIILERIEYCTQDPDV
Briefly: Tyrosine kinase assay (Kinase-Glo or AlphaScreen), Alk. To be noted: biochemical tyrosine kinase assay. Summed up: as §1

Another assay deals with T4, Jak2 (Homo sapiens, UniProt O60674).
T4 construct: 6×His- or GST-tagged kinase domain fragments of the corresponding RTKs expressed in baculovirus system; host or cells: baculovirus system
T4 sequence (O60674 849-1124 limits assumed, species assumed): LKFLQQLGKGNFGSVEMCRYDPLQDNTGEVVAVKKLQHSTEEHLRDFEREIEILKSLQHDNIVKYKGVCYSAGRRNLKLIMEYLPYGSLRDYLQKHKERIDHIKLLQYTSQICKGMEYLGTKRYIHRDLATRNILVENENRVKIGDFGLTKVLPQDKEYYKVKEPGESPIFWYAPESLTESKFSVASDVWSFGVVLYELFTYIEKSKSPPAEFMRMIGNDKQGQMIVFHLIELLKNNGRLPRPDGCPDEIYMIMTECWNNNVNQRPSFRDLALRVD
Description: Tyrosine kinase assay (Kinase-Glo or AlphaScreen), Jak2. To be noted: biochemical tyrosine kinase assay. Summed up:
as §1

A further assay deals with H929 (multiple myeloma). Briefly: Cell proliferation inhibition, Cell Titer-Glo, H929. In kind it is cell-based. The note with it: Homo sapiens, NCI-H929; cell proliferation assay, H929 cells. Here is the method:
IGF1R and other tyrosine kinase inhibitors can inhibit the proliferation of certain cancer cell lines indicating their possible therapeutic utility for treating the corresponding cancer types. Cancer cell lines of interest and control normal lines, including CHO, HEK293, BA/F3, MM1, H929, COLO205, PC3, DU145, MCF7, Panc1, ACHN, Hep G2, H460, K562, TT, U87-G, CAOV-3, SK-MEL5, Karpas 299, are plated in white, clear-bottomed 384-well cell culture plates at 2500-5000 cells per well and supplied with dilutions of tested compounds After a desired period of time (typically 3 days), the number of viable cells is quantitated by using Cell Titer-Glo Luminescent Cell Viability Assay (Promega), a cell proliferation assay system based on detection of total amount of ATP present as a measure of cell metabolic activity. The plated cells are mixed with the Cell Titer-Glo developing reagent and counted in a luminescence multiwell plate reader according to the standard manufacturer's protocol to generate IC50 curves for cell proliferation inhibition.
IGF1R and other tyrosine kinase inhibitors can inhibit the proliferation of certain cancer cell lines indicating their possible therapeutic utility for treating the corresponding cancer types. Cancer cell lines of interest and control normal lines, including CHO, HEK293, BA/F3, COLO205, PC3, DU145, MCF7, Panc1, ACHN, Hep G2, H460, K562, TT, U87-MG, CAOV-3, SK-MEL5, Karpas 299 and human multiple myeloma cell lines H929, MM1s, MM1r, UTMC2, CPM2, KMS11, My5, KMS12PE, My7, JJN3, KMS18, U266, SKMM2, RPMI-8226 are plated in white, clear-bottomed 384-well cell culture plates at 2500-5000 cells per well and supplied with dilutions of tested compounds After a desired period of time (typically 3 days), the number of viable cells is quantitated by using Cell Titer-Glo Luminescent Cell Viability Assay (Promega), a cell proliferation assay system based on detection of total amount of ATP present as a measure of cell metabolic activity. The plated cells are mixed with the Cell Titer-Glo developing reagent and counted in a luminescence multiwell plate reader according to the standard manufacturer's protocol to generate IC50 curves for cell proliferation inhibition. Results are typically reported as percent of growth (% viability =(OD72h(compound)−ODday0))/(OD72h(no compound)−ODday0). Alternatively, viable cells are quantitated by using the conventional colorimetric MTT assay. The MTT assay is based on the cleavage of the yellow tetrazolium salt MTT to purple formazan crystal by metabolic active cells. The formazan is then solubilized, and the concentration determined by optical density at 570 nm. The cells plated and incubated with a compound as described above are supplemented with the solution of MTT and incubated for 2-3 hours. The growth medium is removed and dimethyl sulfoxide is added into each well to dissolve the formazan. The absorbance is measured on an ELISA plate reader with a test wavelength of 570 nm and a background subtraction wavelength of 630 nm to obtain sample signal (OD570-OD630). […] The results are reported in terms of IC50 value for a particular compound and a cell line in the standard 3-day proliferation assay using Cell Titer-Glo. […] The results are reported in terms of IC50 value for a particular compound and a cell line in the standard 3-day proliferation assay using MTT assay.
A general note: ATP-based viability assays read luminescence as a measure of living cells.

Another assay has as its system Ba/F3. Description: Cell proliferation inhibition, Cell Titer-Glo, Ba/F3. In kind it is cell-based. The note with it: Mus musculus, BaF3; cell proliferation assay, Ba/F3 cells. Summed up: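 This standard 3-day proliferation assay used Ba/F3 cells plated in 384-well white plates with clear bottoms at 2500-5000 cells per well and treated with compound dilutions. Viable cell number was determined by mixing in Cell Titer-Glo developing reagent according to the manufacturer's protocol and counting luminescence. Percent viability relative to day 0 and untreated wells produced IC50 curves.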

The next assay relates to Karpas-299. Description: Cell proliferation inhibition, Cell Titer-Glo, Karpas-299. In kind it is cell-based. The note with it: Homo sapiens; cell proliferation assay, Karpas-299 cells. Summed up: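 In this standard 3-day proliferation assay, Karpas 299 cells plated at 2500-5000 cells per well in 384-well white, clear-bottomed plates were treated with compound dilutions. Cell Titer-Glo developing reagent was added following the manufacturer's protocol, luminescence reflecting ATP content was read on a multiwell plate reader, and IC50 curves were generated.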

The next assay has as its system K562. Description: Cell proliferation inhibition, Cell Titer-Glo, K562. In kind it is cell-based. To be noted: Homo sapiens; cell proliferation assay, K562 cells. Summed up:
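Proliferation inhibition in human K562 cells was assessed in a standard 3-day assay. Cells (2500-5000 per well) in 384-well white, clear-bottomed plates received serial compound dilutions, then Cell Titer-Glo reagent was added per the manufacturer's protocol. Luminescence reflecting ATP content of metabolically active cells was counted in a multiwell reader, and IC50 curves were generated.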

pIC50: −log10 of the molar value. Bounds are passed on as bounds.

T1 sequence (P08069 999-1274 limits assumed): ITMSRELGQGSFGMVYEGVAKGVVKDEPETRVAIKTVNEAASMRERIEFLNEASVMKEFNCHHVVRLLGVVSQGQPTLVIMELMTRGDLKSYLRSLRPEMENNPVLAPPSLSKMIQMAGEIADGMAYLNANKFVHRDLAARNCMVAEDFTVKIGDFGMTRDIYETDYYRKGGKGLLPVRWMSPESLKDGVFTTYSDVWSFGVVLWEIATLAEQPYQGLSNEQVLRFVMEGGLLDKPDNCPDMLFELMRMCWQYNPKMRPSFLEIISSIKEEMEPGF

Regarding `COc1ccc2c(ccn2C[C@H](O)CNc2cc[nH]c(=O)c2-c2nc3cc4c(cc3[nH]2)C(=O)N(C2CCN(C)CC2)C4=O)c1` [compound 113], the pIC50 (as a rule, −log10 of the IC50, conventionally taken in molar units) on IGF1R tyrosine kinase was 5.30 to 6.30; against InsR it was 5.30 to 6.30; against Alk it was above 6.30; on Jak2, 5.30 to 6.30; in the assay with H929 (multiple myeloma), below 4.82; with Ba/F3 it was below 4.82. In addition, the pIC50 in the assay with Karpas-299 and with K562 was below 4.82 throughout.
As to `COCCN1C(=O)c2cc3nc(-c4c(NC[C@@H](O)c5cccc(Cl)c5)cc[nH]c4=O)[nH]c3cc2C1=O` [compound 36], the pIC50 at IGF1R tyrosine kinase was below 4.82; against InsR, below 4.82; against Alk, below 4.82; against Jak2, below 4.82; in the assay on H929 (multiple myeloma), 5.30 to 6.30; in the assay with Ba/F3, below 4.82. Further, the pIC50 with Karpas-299 and with K562 was below 4.82 in each case.
`Cc1ccc(OC[C@H](O)CNc2cc[nH]c(=O)c2-c2nc3cc4c(cc3[nH]2)C(=O)N(CC(C)(C)CN(C)C)C4=O)c(C)c1` [compound 116]: the negative-log IC50 (pIC50) is above 6.30 against IGF1R tyrosine kinase; above 6.30 at InsR; 4.82 to 5.30 on Alk; 5.30 to 6.30 on Jak2; below 4.82 in the assay on H929 (multiple myeloma); below 4.82 with Ba/F3. The negative logarithm of the IC50 (pIC50) was 4.82 to 5.30 in the assay with Karpas-299 and below 4.82 with K562.
Take `COC[C@@H](C)N1C(=O)c2cc3nc(-c4c(NC[C@@H](O)c5cccc(Cl)c5)cc[nH]c4=O)[nH]c3cc2C1=O` [compound 30]: the pIC50 against IGF1R tyrosine kinase, against InsR, at Alk, against Jak2, in the assay on H929 (multiple myeloma) and in the assay with Ba/F3 was below 4.82 in each case. Moreover, the pIC50 with Karpas-299 and in the assay on K562 was below 4.82 throughout.
As to `COc1ccccc1OCC(O)CNc1cc[nH]c(=O)c1-c1nc2cc3c(cc2[nH]1)C(=O)N(C1CCN(C)CC1)C3=O` (centres unmarked) [compound 41], the pIC50 is 5.30 to 6.30 on IGF1R tyrosine kinase; 5.30 to 6.30 against InsR; 4.82 to 5.30 against Alk; 4.82 to 5.30 against Jak2; 4.82 to 5.30 in the assay on H929 (multiple myeloma); 5.30 to 6.30 in the assay on Ba/F3. Further, the pIC50 in the assay on Karpas-299 was 5.30 to 6.30; with K562, 4.82 to 5.30.
`COc1cc(C#N)ccc1OC[C@H](O)CNc1ccnc(O)c1-c1nc2cc3c(cc2[nH]1)C(=O)N(C1CCN(C)CC1)C3=O` [compound 90]: the negative logarithm of the IC50 (pIC50) on IGF1R tyrosine kinase was 4.82 to 5.30; against InsR, 4.82 to 5.30; against Alk, below 4.82; against Jak2, 5.30 to 6.30; in the assay with H929 (multiple myeloma), 4.82 to 5.30; with Ba/F3, 4.82 to 5.30. Moreover, the pIC50 in the assay on Karpas-299 and with K562 was 5.30 to 6.30 in each case.
Turning to `Cc1c(Cl)cccc1OC[C@H](O)CNc1cc[nH]c(=O)c1-c1nc2cc3c(cc2[nH]1)C(=O)N(CC1CCN(CCO)CC1)C3=O` [compound 119], the pIC50 is above 6.30 against IGF1R tyrosine kinase; above 6.30 against InsR; 5.30 to 6.30 at Alk; 5.30 to 6.30 against Jak2; below 4.82 in the assay on Ba/F3; below 4.82 with Karpas-299. In the assay with K562, this compound showed a pIC50 below 4.82.
Take `Cc1ncccc1OC[C@H](O)CNc1ccnc(O)c1-c1nc2cc3c(cc2[nH]1)C(=O)N(C1CCN(C)CC1)C3=O` [compound 71]: the pIC50 at IGF1R tyrosine kinase was 5.30 to 6.30; against InsR it was 5.30 to 6.30; at Alk, 4.82 to 5.30; against Jak2 it was 4.82 to 5.30; with Ba/F3, below 4.82; with Karpas-299 it was below 4.82. Further, in the assay with K562, the pIC50 was below 4.82.
Turning to `Cc1ccc(OC[C@H](O)CNc2ccnc(O)c2-c2nc3cc4c(cc3[nH]2)C(=O)N([C@@H]2CCCN(C)C2)C4=O)c(C)c1` [compound 102], the pIC50 against IGF1R tyrosine kinase is above 6.30; at InsR, 4.82 to 5.30; on Alk, below 4.82; against Jak2, below 4.82; in the assay on Ba/F3, below 4.82; with Karpas-299, 4.82 to 5.30. In the assay with K562, this compound showed a pIC50 below 4.82.
For the compound `Cc1ccc(SC[C@H](O)CNc2cc[nH]c(=O)c2-c2nc3cc4c(cc3[nH]2)C(=O)N(C2CCN(C)CC2)C4=O)c(C)c1` [compound 79], the negative-log IC50 (pIC50) on IGF1R tyrosine kinase was 5.30 to 6.30; against InsR, 5.30 to 6.30; against Alk, 5.30 to 6.30; against Jak2 it was 5.30 to 6.30; in the assay on Ba/F3, 4.82 to 5.30; with Karpas-299, 4.82 to 5.30. The compound also gave a pIC50 in the assay on K562 of 5.30 to 6.30.
Turning to `COc1ccc(OC[C@H](O)CNc2cc[nH]c(=O)c2-c2nc3c(C)c4c(cc3[nH]2)C(=O)N(C2CCN(C)CC2)C4=O)c(C)c1Cl` [compound 138], the negative-log IC50 (pIC50) against IGF1R tyrosine kinase was above 6.30; against InsR, above 6.30; against Alk, 5.30 to 6.30; on Jak2, 5.30 to 6.30; in the assay with Ba/F3 it was 4.82 to 5.30; in the assay on Karpas-299 it was 5.30 to 6.30. The pIC50 in the assay on K562 was below 4.82.
Regarding `CN1CCC(N2C(=O)c3cc4nc(-c5c(NC[C@@H](O)Cn6ccc7c(C#N)cccc76)cc[nH]c5=O)[nH]c4cc3C2=O)CC1` [compound 112], the pIC50 against IGF1R tyrosine kinase is 5.30 to 6.30; at InsR, 5.30 to 6.30; against Alk it was 5.30 to 6.30; against Jak2, 5.30 to 6.30; in the assay with Ba/F3 it was 4.82 to 5.30; with Karpas-299, 5.30 to 6.30. In the assay with K562, the pIC50 was 4.82 to 5.30.
As to `Cc1ccc(OC[C@H](O)CNc2ccnc(O)c2-c2nc3cc4c(cc3[nH]2)C(=O)N(C2CCN(C)CC2)C4=O)cn1` [compound 69], the pIC50 was 5.30 to 6.30 on IGF1R tyrosine kinase; 5.30 to 6.30 against InsR; 4.82 to 5.30 on Alk; 5.30 to 6.30 against Jak2; below 4.82 in the assay with Ba/F3; below 4.82 in the assay with Karpas-299. This compound gave a pIC50 with K562 below 4.82.
Take `Cc1ccc(OC[C@H](O)CNc2ccnc(O)c2-c2nc3cc4c(cc3[nH]2)C(=O)N([C@H]2CCCN(C)C2)C4=O)c(C)c1` [compound 103]: the pIC50 on IGF1R tyrosine kinase is above 6.30; against InsR, 4.82 to 5.30; against Alk it was below 4.82; against Jak2, 4.82 to 5.30; in the assay on Ba/F3, 5.30 to 6.30; with Karpas-299, 5.30 to 6.30. Further, the pIC50 in the assay with K562 is 5.30 to 6.30.
